The text below walks through data of patent publication US8865734B2 (priority 2010, dated 2014).

The test system of test [1] is M. tuberculosis inside the host macrophage. The test can be described thus: QIM: Quantification of Intracellular Mycobacteria (intracellular growth assay, phenotypic cell-based). The settings on record: Mycobacterium tuberculosis; MIC, 80% bacterial growth inhibition; intracellular growth; read-out: QIM. From the text:
Accordingly, a phenotypic cell-based assay, suitable for high throughput screening, which allows for the search of compounds that would prevent M. tuberculosis multiplication inside the host macrophage was utilized (WO2010003533A2), overcoming many of the numerous and burdensome steps involved in previous methodologies (Arain et al., 1996).
A 120,000 small molecule compound library was screened using a validated phenotypic cell-based assay (WO2010003533A2). Active compounds from the primary screen were confirmed via dose response in the intracellular (QIM) assay and an in vitro (QUM) assay, wherein the abbreviation “QIM” stands for Quantification of Intracellular Mycobacteria and the abbreviation “QUM” stands for Quantification of in vitro grown Mycobacteria. […] The MIC is the minimum concentration of compound required to obtain 80% bacterial growth inhibition.
The imidazopyridine compounds (scaffolds Ia and Ib; see Table 1) underwent derivatization according to the methods outlined below (Schemes 1-13). Resulting derivatives were examined for inhibitory activity (MIC) using the assays described above (Example 1) and the results are summarized in Table 1.

In test [2] the test system is in vitro grown Mycobacteria (M. tuberculosis). The test can be described thus: QUM: Quantification of in vitro grown Mycobacteria (in vitro growth fluorescence assay). The following applies: Mycobacterium tuberculosis; MIC, 80% bacterial growth inhibition; in vitro growth; read-out: QUM. The class given is cell-based. A digest of the protocol:
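Mycobacterium tuberculosis grown in vitro was quantified by fluorescence across compound dose responses. MIC is defined as the minimum concentration producing 80% growth inhibition.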

≈ marks a conversion by molar mass, not a printed value.

With `CCc1nc2cc(Cl)ccn2c1C(=O)NCc1ccc(N2CCN(c3ccccc3)CC2)cc1` [Compound 111, 7-Chloro-2-ethyl-N-(4-(4-phenylpiperazin-1-yl)benzyl)imidazo[1,2-a]pyridine-3-carboxamide], the MIC in test [1] and in test [2] was below 1 µM in each case.
Consider `CCc1nc2ccc(C)cn2c1C(=O)NCc1ccc2c(ccn2C)c1` [Compound 66, 2-Ethyl-6-methyl-N-((1-methyl-1H-indol-5-yl)methyl)imidazo[1,2-a]pyridine-3-carboxamide], for which the MIC in test [1] and in test [2] was below 1 µM each time.
With `CCc1nc2cc(Cl)ccn2c1C(=O)NCc1ccc(-n2cccc2)cc1` [Compound 138, N-(4-(1H-Pyrrol-1-yl)benzyl)-7-chloro-2-ethylimidazo[1,2-a]pyridine-3-carboxamide], the MIC in test [1] and in test [2] was below 1 µM throughout.
As to `CCc1nc2ccc(F)cn2c1C(=O)NCc1ccc(OCc2ccc(OC(F)(F)F)cc2)cc1` [Compound 258, 2-Ethyl-6-fluoro-N-(4-(4-(trifluoromethoxy)benzyloxy)benzyl)imidazo[1,2-a]pyridine-3-carboxamide], the MIC in test [1] and in test [2] was below 1 µM each time.
Consider `CCc1nc2ccccn2c1C(=O)NCc1ccc(OCC(C)C)cc1` [Compound 61, 2-Ethyl-N-(4-isobutoxybenzyl)imidazo[1,2-a]pyridine-3-carboxamide], for which the MIC in test [1] and in test [2] was below 1 µM throughout.
Consider `CCc1nc2ccc([N+](=O)[O-])cn2c1C(=O)NCc1ccc(OC(F)(F)F)cc1` [Compound 149, 2-Ethyl-6-nitro-N-(4-(trifluoromethoxy)benzyl)imidazo[1,2-a]pyridine-3-carboxamide], for which the MIC in test [1] and in test [2] was above 20 µM each time.
With `Cc1nc2ccc(-c3ccccc3)cn2c1C(=O)NCc1ccccc1` [Compound 38, N-Benzyl-2-methyl-6-phenylimidazo[1,2-a]pyridine-3-carboxamide], the MIC in test [1] and in test [2] was above 20 µM throughout.
Regarding `CCCc1nc2ccccn2c1C(=O)NCc1ccc(-c2ccccc2)cc1` [Compound 49, N-(Biphenyl-4-ylmethyl)-2-propylimidazo[1,2-a]pyridine-3-carboxamide], the MIC in test [1] and in test [2] was below 1 µM each time.
Consider `CCc1nc2cc(Cl)ccn2c1C(=O)NCc1ccc(-c2ccccc2Cl)cc1` [Compound 94, 7-Chloro-N-((2′-chlorobiphenyl-4-yl)methyl)-2-ethylimidazo[1,2-a]pyridine-3-carboxamide], for which the MIC in test [1] and in test [2] was below 1 µM throughout.
For `CCc1nc2ccc(Cl)cn2c1C(=O)NCc1ccc(N2CCN(c3ccc(F)cc3)CC2)cc1` [Compound 113, 6-Chloro-2-ethyl-N-(4-(4-(4-fluorophenyl)piperazin-1-yl)benzyl)imidazo[1,2-a]pyridine-3-carboxamide], the MIC in test [1] and in test [2] was below 1 µM throughout.
Regarding `Cc1nc2ccc(C#N)cn2c1C(=O)NCc1ccccc1` [Compound 36, N-Benzyl-6-cyano-2-methylimidazo[1,2-a]pyridine-3-carboxamide], the MIC in test [1] and in test [2] was above 20 µM each time.
Turning to `CCc1nc2cc(Cl)ccn2c1C(=O)NCc1ccc(C(C)(C)C)cc1` [Compound 92, N-(4-tert-Butylbenzyl)-7-chloro-2-ethylimidazo[1,2-a]pyridine-3-carboxamide], the MIC in test [1] and in test [2] was below 1 µM each time.
Turning to `CCc1nc2cc(Cl)ccn2c1C(=O)NCc1ccc(-c2cccc(C)c2)cc1` [Compound 97, 7-Chloro-2-ethyl-N-((3′-methylbiphenyl-4-yl)methyl)imidazo[1,2-a]pyridine-3-carboxamide], the MIC in test [1] and in test [2] was below 1 µM throughout.
Regarding `Cc1ccc2nc(C)c(C(=O)NCc3ccccc3)n2c1` [Compound 32, N-Benzyl-2,6-dimethylimidazo[1,2-a]pyridine-3-carboxamide], the MIC in test [1] and in test [2] was below 1 µM throughout.
For `Cc1nc2cc(Cl)ccn2c1C(=O)NCc1ccccc1` [Compound 28, N-Benzyl-7-chloro-2-methylimidazo[1,2-a]pyridine-3-carboxamide], the MIC in test [1] is 1 to 20 µM (≈ 0.3 to 6 µg/mL); in test [2], above 20 µM.
Regarding `CCc1nc2cc(Cl)ccn2c1C(=O)NCc1ccc(N2CCCCCC2)cc1` [Compound 222, N-(4-(Azepan-1-yl)benzyl)-7-chloro-2-ethylimidazo[1,2-a]pyridine-3-carboxamide], the MIC in test [1] and in test [2] was below 1 µM each time.
For `CCc1nc2ccc(Cl)cn2c1C(=O)NCc1ccc(-c2ccccc2C#N)cc1` [Compound 125, 6-Chloro-N-((2′-cyanobiphenyl-4-yl)methyl)-2-ethylimidazo[1,2-a]pyridine-3-carboxamide], the values for the MIC in test [1] and in test [2] were 1 to 20 µM (≈ 0.415 to 8.3 µg/mL) and below 1 µM, respectively.
For `CC(C)c1nc2ccccn2c1C(=O)NCc1ccc(-c2ccccc2)cc1` [Compound 52, N-(Biphenyl-4-ylmethyl)-2-isopropylimidazo[1,2-a]pyridine-3-carboxamide], the MIC in test [1] and in test [2] was 1 to 20 µM (≈ 0.369 to 7.39 µg/mL) each time.
Regarding `CCc1nc2cc(Cl)ccn2c1C(=O)NCc1ccc(N2CCN(C)CC2)cc1` [Compound 109, 7-Chloro-2-ethyl-N-(4-(4-methylpiperazin-1-yl)benzyl)imidazo[1,2-a]pyridine-3-carboxamide], the MIC in test [1] and in test [2] was 1 to 20 µM (≈ 0.412 to 8.24 µg/mL) each time.
In the case of `CCc1nc2ccc(Cl)cn2c1C(=O)NCc1ccn(-c2ccc(F)cc2)n1` [Compound 235, 6-Chloro-2-ethyl-N-((1-(4-fluorophenyl)-1H-pyrazol-3-yl)methyl)imidazo[1,2-a]pyridine-3-carboxamide], the MIC in test [1] and in test [2] was 1 to 20 µM (≈ 0.398 to 7.96 µg/mL) throughout.
For `CCOC(=O)c1c(C)nc2ccc(-c3ccccc3)cn12` [Compound 4, Ethyl 2-methyl-6-phenylimidazo[1,2-a]pyridine-3-carboxylate], the MIC in test [1] and in test [2] was above 20 µM in each case.
Take `CCc1nc2cc(O)ccn2c1C(=O)NCc1ccc(OC(F)(F)F)cc1` [Compound 105, 2-Ethyl-7-hydroxy-N-(4-(trifluoromethoxy)benzyl)imidazo[1,2-a]pyridine-3-carboxamide]: the MIC in test [1] and in test [2] was above 20 µM throughout.
With `CCc1nc2ccc(Cl)cn2c1C(=O)NCc1ccc(-c2ccc(Cl)cc2)cc1` [Compound 83, 6-Chloro-N-((4′-chlorobiphenyl-4-yl)methyl)-2-ethylimidazo[1,2-a]pyridine-3-carboxamide], the MIC in test [1] and in test [2] was below 1 µM throughout.
With `CCc1nc2ccc(F)cn2c1C(=O)NCc1ccc(N2CCOCC2)cc1` [Compound 316, 2-Ethyl-6-fluoro-N-(4-morpholinobenzyl)imidazo[1,2-a]pyridine-3-carboxamide], the MIC in test [1] and in test [2] was 1 to 20 µM (≈ 0.382 to 7.65 µg/mL) each time.
On to `CCc1nc2ccccn2c1C(=O)NCc1ccc(N(C)Cc2ccc(OC(F)(F)F)cc2)cc1` [Compound 263, 2-Ethyl-N-(4-(methyl(4-(trifluoromethoxy)benzyl)amino)benzyl)imidazo[1,2-a]pyridine-3-carboxamide], for which the MIC in test [1] and in test [2] was below 1 µM in each case.
